Data set [1] in a line: Release of loperamide from extrudates in demineralized water (release device, UV/VIS). Type of data set: physicochemical. As to conditions: 250 ml demineralized water, 37° C.; spectroscopic detection. Here is the method:
The active ingredient release from samples 14, 15, 16 and 17 were tested in a release device with automatic spectroscopic measurement (00501FEXXX-D). The extrudates having 5% content of active ingredient were added directly to the release medium at the beginning of the experiment. […] The mixtures were filled into hard gelatine capsules and released therefrom.
Procedure for release (2 hours):
Conditions 0-2 hours: Medium: • 250 ml of demineralized water; • paddle stirrer 50 rpm; • temperature 37° C. • content determination UV/VIS with 1 cm path length cuvette • active ingredient amount 250 mg
The results of the releases are compiled in the following tables and diagrams. The release is complete in all cases.

The conditions of data set [2]: demineralized water, 100 mg haloperidol per 250 ml, hard gelatine capsules.
Description: The release of the active ingredient from the spray-dried polymeric salt was carried out in demineralized water. The initial weight was calculated on 100 mg of haloperidol per 250 ml of release medium. The polymeric salt or the crystalline substance correspondingly weighed out were filled into hard gelatine capsules.

Molecules are shown by their SMILES. Read-outs that look alike come from different tables or passages of the source.

For the compound `CN(C)C(=O)C(CCN1CCC(O)(c2ccc(Cl)cc2)CC1)(c1ccccc1)c1ccccc1` [crystalline loperamide (base), loperamide], in data set [1], the “Dissolution in the release medium” value is “no dissolution at all”.

Take `O=C(CCCN1CCC(O)(c2ccc(Cl)cc2)CC1)c1ccc(F)cc1` [Crystalline haloperidol, haloperidol]: the Release of haloperidol came to 0.0% in data set [2] (0 min); 0.1% in data set [2] (2 min); 0.2% in data set [2] (4 min); 0.3% in data set [2] (6 min); 0.4% in data set [2] (8 min); 0.6% in data set [2] (10 min). For the same compound, the Release of haloperidol in data set [2] (30 min) stood at 1.5%; in data set [2] (60 min), 1.8%; in data set [2] (120 min), 2.3%.

For the origin of these results see patent US20180228730A1, “USE OF WATER-SOLUBLE POLYMERS BASED ON N-VINYLPYRROLIDONE AND ACRYLIC ACID AS PHARMACEUTICAL ADJUVANTS” (BASF SE, priority 2015, published 2018).
